How the values were obtained:
[1] = test system: cisplatin-induced acute kidney injury (AKI); experiment: Protective effect on acute kidney injury by subcutaneous injection; type: in vivo, C57BL/6J male mice; details: subcutaneous injection about 250 mg in terms of BHB/kg, 6 hours prior to cisplatin 20 mg/kg; 72 hours after challenge
Experimental: C57BL/6J male mice (8 weeks old) were divided into four groups for use in different treatments. Acute kidney injury was induced by intraperitoneal injection of cisplatin (20 mg/kg). A mouse was pretreated with subcutaneous injection of physiological saline (n = 11) or sodium β-hydroxybutyrate (at a dose in terms of BHB/kg of about 250 mg, n = 1) or Nano^BHB (at a dose in terms of BHB/kg of about 250 mg, n = 10) 6 hours prior to exposure to cisplatin. The healthy group (n = 8) was injected with physiological saline instead of cisplatin. 72 hours after the cisplatin challenge, the mouse was sacrificed, and blood plasma and kidney were collected. Renal function was assessed by measuring the levels of blood urea nitrogen (BUN), creatinine (CRE), aspartate transaminase (AST). […] In the figure, (A) represents a scheme of animal experiment, (B) is a graphical representation of data on blood urea nitrogen in plasma of an AKI mouse 3 days after injection of cisplatin, (C) is a graphical representation of data on creatinine, (D) is a graphical representation of data on aspartate transaminase, (E) is a presentation image of periodic acid Schiff (PAS) staining at 20 fold magnification of kidney tissue, and (F) is a graph summarizing data of the result of quantitative measurement of a damaged region of the kidney from a stained image. […]

[2] = test system: Bovine aortic endothelial cells (BAEC); experiment: Cytotoxicity, WST cell viability; type: cell-based; details: 24 hours, BHB content from 0 to 25.4 mM
Experimental: Bovine aortic endothelial cells (BAEC) (available from RIKEN (RIKEN, Tsukuba, Japan)) were pre-seeded on a 96 well (well) plate and incubated with either Nano^BHB or BHB at different concentrations with a BHB content of from 0 to 25.4 mM in a medium. After 24 hours, the medium was discarded, followed by addition of 100 µL of medium containing 10 µL of WST agent and incubation for 4 hours. In a final process, cell viability was measured based on a ratio of optical signals of a subject well and a water treatment group well at a wavelength of 450 nm in each well.

CC(O)CC(=O)[O-].[Na+] (stereo not drawn) [sodium β-hydroxybutyrate]
Effect against cisplatin-induced acute kidney injury (BUN, CRE, AST, PAS staining) [1]: no decrease in renal function is observed
survival rate and morphology of the BAEC cells [2]: do not affect
